Experimental data: PubChem BioAssay AID2060882 (Molecular Pharmacology Branch, DTP, NCI, 2025)
pIC50: −log10 of the molar value.

Test system: 898857-211-R-J1-PDC complex spheroids, growth % test/control
Experiment: Anticancer human tumor 898857-211-R-J1-PDC patient-derived melanoma cell line growth inhibition [RAS]
Settings: for pIC50: curve of first compound; for viability, T/C: stronger effect = lower value
Excerpt: RAS pathway inhibitors in Combinations in Complex Spheroids
A high-throughput screen of multi-cell type tumor spheroids was designed to identify active combinations of RAS pathway inhibitors and targeted small molecules. Complex spheroids include a stromal component modeled by human endothelial cells (HUVEC) and fibroblasts modeled by human mesenchymal stem cells (MSCs). The concentration ranges selected for each drug and investigational agent were based upon clinically achievable concentrations if the clinical Cmax of the agent was known.
Compounds. The drugs and investigational agents: abemaciclib (NSC768073), cobimetinib (NSC768068), divarasib (GDC6063, NSC841802), docetaxel (NSC628503), GDC-1971 (RLY-1971, NSC841576), gemcitabine (NSC613327), inavolisib (NSC800729), ipatasertib (NSC767898), KB-0742 (NSC834161), MRTX-1133 (NSC836407), osimertinib (NSC779217), RMC-4630 (NSC839698), RMC-6236 (NSC851965), RMC-6291 (NSC852671), Ro-3306 (NSC812927), sapanisertib (NSC764658), SN-38 (NSC673596), staurosporine (NSC755774), SY5609 (NSC837396), and tovorafenib (DAY101, NSC766906), were obtained from the National Cancer Institute (NCI) Developmental Therapeutics Program Chemical Repository. The FDA-approved anticancer drug set is available from the NCI Developmental Therapeutics Program. […] The stock solutions were prepared in dimethyl sulfoxide (DMSO, Sigma-Aldrich, St. Louis, MO, cat. D2650) at 800-fold the tested concentration and stored at -70 degrees C prior to their use. All drugs and investigational agents were tested over a range starting from a high concentration at or near the clinical Cmax and decreasing in half-log increments. If the clinical Cmax for an agent had not been determined, the highest concentration tested was 10 microM.
Cell Culture. All cells were maintained in an incubator at 37 degrees C and 5% CO2 with 95% humidity. The PDC lines were cultured according to standard operating procedures established by the NCI PDMR. All PDCs were thawed and cultured in Matrigel-coated flasks prepared with a working solution of 1X Ham's F-12 nutrient mix, without supplementation (Invitrogen, Waltham, MA, cat. 11765054), 100 U/mL penicillin-streptomycin (Invitrogen, cat. 15140122), and 2.5% Matrigel (Corning Inc., Corning, NY, cat. 354248) for the first three passages. The 362531-283-R-J2-PDC and 782815-120-R-J1-PDC lines were cultured in 6C/Colon 1B media, which includes advanced DMEM/F-12 (Thermo Fisher Scientific, cat. 12634028), 10 mM HEPES (Thermo Fisher Scientific, cat. 15630080), 1X GlutaMAX supplement (Thermo Fisher Scientific, cat. 35050061), 0.1 mg/mL primocin (InvivoGen, San Diego, CA, cat. ant-pm-2), 10% defined fetal bovine serum, heat inactivated (HyClone Laboratories Inc., Logan, UT, cat. SH30070.03HI), 50% L-WRN conditioned media (ATCC, cat. CRL-3276), 1.25 mM N-Acetyl-L-cysteine (Sigma-Aldrich, cat. A9165), 10 mM nicotinamide (Sigma-Aldrich, cat. N0636), 1X B-27 supplement (Thermo Fisher Scientific, cat. 17504044), 1X N-2 supplement (Thermo Fisher Scientific, cat. 17502048), 50 ng/mL human EGF (Thermo Fisher Scientific, cat. PHG0311), and 10 microM Y-27632 dihydrochloride (Tocris Bioscience, cat. 1254). The K12877-001-R-J1-PDC line was cultured in 6I media, which includes all 6C/Colon 1B media plus 10 ng/mL human FGF-10 (PeproTech, cat. 100-26), 1 ng/mL human FGF-2 (PeproTech, cat. 100-18B), 1 µM prostaglandin E2 (Tocris Bioscience, cat. 2296), […] hydrocortisone (Sigma-Aldrich, cat. H4001), and […] bovine insulin (Sigma-Aldrich, cat. I6634). The K86415-001-R-J1-PDC line was cultured in 6D media, which includes all 6C/Colon 1B media components minus the L-WRN conditioned media. The 485176-168-R4-J1-PDC was cultured in PANC media, which includes all 6C/Colon 1B media plus 100 ng/mL human FGF-10 (PeproTech, cat. 100-26), 500 nM SB-431542 (Selleckchem, cat. S1067), and 10 nM gastrin (Tocris Bioscience, cat. 3006). […]
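Note: spheroids exposed to compound for seven days before readout.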
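Throughout, for viability, T/C: 100% = DMSO vehicle control wells.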

- pIC50 (second compound 0.00316 µM): 8.10
- pIC50 (second compound 0.01 µM): 8.14
- pIC50 (second compound 0.0316 µM): 8.15
- pIC50 (second compound 0.1 µM): 8.16
- pIC50 (second compound 0.316 µM): 8.14
- pIC50 (second compound 1 µM): 8.16
Compound: Nc1ccn(C2OC(CO)C(O)C2(F)F)c(=O)n1 (configuration not stated) + C=CC(=O)N1CCN(c2nc(OCC3CCCN3C)nc3c(F)c(-c4nc(N)cc(C)c4C(F)(F)F)c(Cl)cc23)C(C)C1
- viability, T/C (second compound 0.00316 µM, first compound 0.00316 µM): 110%
- viability, T/C (second compound 0.00316 µM, first compound 0.01 µM): 34.5%
- viability, T/C (second compound 0.00316 µM, first compound 0.0316 µM): 6.39%
- viability, T/C (second compound 0.00316 µM, first compound 0.1 µM): 4.85%
- viability, T/C (second compound 0.00316 µM, first compound 0.316 µM): 5.1%
- viability, T/C (second compound 0.00316 µM, first compound 1 µM): 4.69%
- viability, T/C (second compound 0.01 µM, first compound 0.00316 µM): 107%
- viability, T/C (second compound 0.01 µM, first compound 0.01 µM): 27.9%
- viability, T/C (second compound 0.01 µM, first compound 0.0316 µM): 5.64%
- viability, T/C (second compound 0.01 µM, first compound 0.1 µM): 4.72%
- viability, T/C (second compound 0.01 µM, first compound 0.316 µM): 4.8%
- viability, T/C (second compound 0.01 µM, first compound 1 µM): 4.83%
- viability, T/C (second compound 0.0316 µM, first compound 0.00316 µM): 103%
- viability, T/C (second compound 0.0316 µM, first compound 0.01 µM): 27.9%
- viability, T/C (second compound 0.0316 µM, first compound 0.0316 µM): 7.07%
- viability, T/C (second compound 0.0316 µM, first compound 0.1 µM): 5.22%
- viability, T/C (second compound 0.0316 µM, first compound 0.316 µM): 4.65%
- viability, T/C (second compound 0.0316 µM, first compound 1 µM): 4.83%
- viability, T/C (second compound 0.1 µM, first compound 0.00316 µM): 96%
- viability, T/C (second compound 0.1 µM, first compound 0.01 µM): 29.2%
- viability, T/C (second compound 0.1 µM, first compound 0.0316 µM): 6.93%
- viability, T/C (second compound 0.1 µM, first compound 0.1 µM): 4.35%
- viability, T/C (second compound 0.1 µM, first compound 0.316 µM): 4.72%
- viability, T/C (second compound 0.1 µM, first compound 1 µM): 4.89%
- viability, T/C (second compound 0.316 µM, first compound 0.00316 µM): 103%
- viability, T/C (second compound 0.316 µM, first compound 0.01 µM): 30.1%
- viability, T/C (second compound 0.316 µM, first compound 0.0316 µM): 6.17%
- viability, T/C (second compound 0.316 µM, first compound 0.1 µM): 5.08%
- viability, T/C (second compound 0.316 µM, first compound 0.316 µM): 5.71%
- viability, T/C (second compound 0.316 µM, first compound 1 µM): 4.45%
- viability, T/C (second compound 1 µM, first compound 0.00316 µM): 104%
- viability, T/C (second compound 1 µM, first compound 0.01 µM): 24%
- viability, T/C (second compound 1 µM, first compound 0.0316 µM): 8.63%
- viability, T/C (second compound 1 µM, first compound 0.1 µM): 5.29%
- viability, T/C (second compound 1 µM, first compound 0.316 µM): 6.52%
- viability, T/C (second compound 1 µM, first compound 1 µM): 5.69%
